Laboratory results reported in ChEMBL document CHEMBL5465560, “Selectivity Literature for EUbOPEN Chemogenomic Library” (2024).

Tests used:
[1] = molecular target: ATPase family AAA domain-containing protein 2 (Homo sapiens, UniProt Q6PL18); assay: Selectivity interaction (BROMOscan) EUB0001074a ATAD2
[2] = molecular target: ATPase family AAA domain-containing protein 2B (Homo sapiens, UniProt Q9ULI0); assay: Selectivity interaction (BROMOscan) EUB0001074a ATAD2B
[3] = molecular target: Bromodomain adjacent to zinc finger domain protein 2A (Homo sapiens, UniProt Q9UIF9); assay: Selectivity interaction (BROMOscan) EUB0001074a BAZ2A
[4] = molecular target: T1, Bromodomain-containing protein 4 (Homo sapiens, UniProt O60885); assay: Selectivity interaction (BROMOscan) EUB0001074a BRD4
[5] = molecular target: T1, Bromodomain-containing protein 4; assay: Selectivity interaction (AlphaScreen) EUB0001074a BRD4
[6] = molecular target: Bromodomain-containing protein 7 (Homo sapiens, UniProt Q9NPI1); assay: Selectivity interaction (BROMOscan) EUB0001074a BRD7
[7] = molecular target: T2, Bromodomain-containing protein 9 (Homo sapiens, UniProt Q9H8M2); assay: Selectivity interaction (BROMOscan) EUB0001074a BRD9
T2 sequence (Q9H8M2 whole entry): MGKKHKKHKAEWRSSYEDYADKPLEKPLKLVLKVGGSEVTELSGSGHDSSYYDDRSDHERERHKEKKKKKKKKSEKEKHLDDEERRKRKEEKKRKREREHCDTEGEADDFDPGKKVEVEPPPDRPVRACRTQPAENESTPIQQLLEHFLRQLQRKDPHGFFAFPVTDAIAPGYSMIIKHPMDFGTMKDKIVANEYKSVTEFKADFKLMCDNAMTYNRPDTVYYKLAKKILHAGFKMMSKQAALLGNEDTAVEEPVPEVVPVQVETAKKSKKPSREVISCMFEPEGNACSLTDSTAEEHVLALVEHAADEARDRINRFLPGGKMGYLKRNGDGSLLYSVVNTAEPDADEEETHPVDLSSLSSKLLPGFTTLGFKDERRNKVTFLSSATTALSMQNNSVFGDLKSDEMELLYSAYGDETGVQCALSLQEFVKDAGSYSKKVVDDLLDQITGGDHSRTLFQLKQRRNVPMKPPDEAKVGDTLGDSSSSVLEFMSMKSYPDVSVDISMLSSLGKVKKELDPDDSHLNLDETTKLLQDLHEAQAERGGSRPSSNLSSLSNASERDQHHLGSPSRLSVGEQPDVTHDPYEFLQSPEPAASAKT

[8] = molecular target: T2, Bromodomain-containing protein 9; assay: Selectivity interaction (AlphaScreen) EUB0001074a BRD9
[9] = molecular target: Peregrin (Homo sapiens, UniProt P55201); assay: Selectivity interaction (AlphaScreen) EUB0001074a BRPF1
[10] = molecular target: T3, Chromatin remodeling regulator CECR2 (Homo sapiens, UniProt Q9BXF3); assay: Selectivity interaction (BROMOscan) EUB0001074a CECR2
[11] = molecular target: T3, Chromatin remodeling regulator CECR2; assay: Selectivity interaction (AlphaScreen) EUB0001074a CECR2
[12] = molecular target: CREB-binding protein (Homo sapiens, UniProt Q92793); assay: Selectivity interaction (BROMOscan) EUB0001074a CREBBP
[13] = molecular target: Nucleosome-remodeling factor subunit BPTF (Homo sapiens, UniProt Q12830); assay: Selectivity interaction (AlphaScreen) EUB0001074a BPTF
[14] = molecular target: Histone acetyltransferase KAT2B (Homo sapiens, UniProt Q92831); assay: Selectivity interaction (BROMOscan) EUB0001074a KAT2B
[15] = molecular target: SWI/SNF-related matrix-associated actin-dependent regulator of chromatin subfamily A member 2 (Homo sapiens, UniProt P51531); assay: Selectivity interaction (BROMOscan) EUB0001074a SMARCA2
[16] = molecular target: TATA box-binding protein-associated factor RNA polymerase I subunit A (Homo sapiens, UniProt Q15573); assay: Selectivity interaction (AlphaScreen) EUB0001074a TAF1A
[17] = molecular target: E3 ubiquitin-protein ligase TRIM33 (Homo sapiens, UniProt Q9UPN9); assay: Selectivity interaction (BROMOscan) EUB0001074a TRIM33
[18] = molecular target: Dual specificity protein kinase CLK1 (Homo sapiens, UniProt P49759)
[19] = molecular target: Dual specificity protein kinase CLK2 (Homo sapiens, UniProt P49760)
[20] = molecular target: Dual specificity protein kinase CLK3 (Homo sapiens, UniProt P49761)
[21] = molecular target: Dual specificity protein kinase CLK4 (Homo sapiens, UniProt Q9HAZ1)
[22] = molecular target: Dual specificity tyrosine-phosphorylation-regulated kinase 1A (Homo sapiens, UniProt Q13627)
[23] = molecular target: Dual specificity tyrosine-phosphorylation-regulated kinase 1B (Homo sapiens, UniProt Q9Y463)
[24] = molecular target: T4, Dual specificity tyrosine-phosphorylation-regulated kinase 2 (Homo sapiens, UniProt Q92630)
T4 sequence (Q92630 whole entry): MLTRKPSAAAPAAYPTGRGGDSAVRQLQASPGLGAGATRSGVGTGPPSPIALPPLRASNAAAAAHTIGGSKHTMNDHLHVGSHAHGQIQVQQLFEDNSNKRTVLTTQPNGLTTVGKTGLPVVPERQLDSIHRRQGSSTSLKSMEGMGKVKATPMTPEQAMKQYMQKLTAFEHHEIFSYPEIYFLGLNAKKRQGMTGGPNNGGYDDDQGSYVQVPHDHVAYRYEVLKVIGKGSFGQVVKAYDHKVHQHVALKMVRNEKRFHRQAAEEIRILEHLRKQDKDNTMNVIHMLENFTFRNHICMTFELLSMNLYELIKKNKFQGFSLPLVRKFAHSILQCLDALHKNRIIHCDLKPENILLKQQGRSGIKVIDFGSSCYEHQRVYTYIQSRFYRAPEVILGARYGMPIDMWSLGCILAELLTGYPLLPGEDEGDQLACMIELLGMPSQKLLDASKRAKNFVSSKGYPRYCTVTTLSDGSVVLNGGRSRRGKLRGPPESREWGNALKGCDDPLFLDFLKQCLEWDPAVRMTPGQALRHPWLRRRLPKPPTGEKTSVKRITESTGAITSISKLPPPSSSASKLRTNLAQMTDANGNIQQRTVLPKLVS

[25] = molecular target: T5, Dual specificity tyrosine-phosphorylation-regulated kinase 3 (Homo sapiens, UniProt O43781)
T5 sequence (O43781 whole entry): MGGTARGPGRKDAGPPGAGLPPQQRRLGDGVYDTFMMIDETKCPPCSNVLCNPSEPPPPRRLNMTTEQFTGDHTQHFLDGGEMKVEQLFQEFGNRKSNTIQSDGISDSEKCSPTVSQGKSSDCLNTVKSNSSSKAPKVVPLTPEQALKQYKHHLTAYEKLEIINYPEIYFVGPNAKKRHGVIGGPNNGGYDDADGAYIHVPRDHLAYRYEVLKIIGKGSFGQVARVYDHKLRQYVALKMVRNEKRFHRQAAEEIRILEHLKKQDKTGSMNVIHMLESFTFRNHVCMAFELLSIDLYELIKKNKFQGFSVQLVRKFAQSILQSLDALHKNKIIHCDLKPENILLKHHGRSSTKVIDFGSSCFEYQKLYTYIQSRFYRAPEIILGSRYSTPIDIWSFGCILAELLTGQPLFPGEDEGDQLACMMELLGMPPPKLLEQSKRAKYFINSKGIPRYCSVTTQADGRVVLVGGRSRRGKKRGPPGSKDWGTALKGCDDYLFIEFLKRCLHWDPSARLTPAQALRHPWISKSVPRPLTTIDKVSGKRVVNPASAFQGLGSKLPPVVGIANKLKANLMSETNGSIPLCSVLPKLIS

[26] = molecular target: T6, SRSF protein kinase 1 (Homo sapiens, UniProt Q96SB4); conditions: at 1 µM
[27] = molecular target: T6, SRSF protein kinase 1
[28] = molecular target: SRSF protein kinase 2 (Homo sapiens) (UniProt P78362)
[29] = molecular target: Activin receptor type-1B (Homo sapiens, UniProt P36896); assay: Selectivity interaction (NanoBRET assay (HEK293T cells)) EUB0001465a ACVR1B; format: cell-based, HEK-293T
[30] = molecular target: Bone morphogenetic protein receptor type-1A (Homo sapiens, UniProt P36894); assay: Selectivity interaction (NanoBRET assay (HEK293T cells)) EUB0001465a BMPR1A; format: cell-based, HEK-293T
[31] = molecular target: Bone morphogenetic protein receptor type-1B (Homo sapiens, UniProt O00238); assay: Selectivity interaction (NanoBRET assay (HEK293T cells)) EUB0001465a BMPR1B; format: cell-based, HEK-293T
[32] = molecular target: TGF-beta receptor type-1 (Homo sapiens, UniProt P36897); assay: Selectivity interaction (NanoBRET assay (HEK293T cells)) EUB0001465a TGFBR1; format: cell-based, HEK-293T
[33] = molecular target: Casein kinase I isoform alpha (Homo sapiens, UniProt P48729); assay: Selectivity interaction (Kinase panel (Reaction Biology)) EUB0001205a CSNK1A1; conditions: at 1 µM
[34] = molecular target: Casein kinase I isoform alpha-like (Homo sapiens, UniProt Q8N752); assay: Selectivity interaction (Tracer competition assays (Reaction Biology) ) EUB0001205a CSNK1A1L
[35] = molecular target: T7, Casein kinase I isoform delta (Homo sapiens, UniProt P48730); assay: Selectivity interaction (Kinase panel (Reaction Biology)) EUB0001205a CSNK1D; conditions: at 1 µM
[36] = molecular target: T7, Casein kinase I isoform delta; assay: Selectivity interaction (Western Blot assay (autophosphorylation of CSNK1D in HEK293T-REx cells)) EUB0001205a CSNK1D; format: cell-based, T-REx-293
[37] = molecular target: T8, Casein kinase I isoform epsilon (Homo sapiens, UniProt P49674); assay: Selectivity interaction (Kinase panel (Reaction Biology)) EUB0001205a CSNK1E; conditions: at 1 µM
Target sequence in this assay (P49674 whole entry, looked up, canonical isoform): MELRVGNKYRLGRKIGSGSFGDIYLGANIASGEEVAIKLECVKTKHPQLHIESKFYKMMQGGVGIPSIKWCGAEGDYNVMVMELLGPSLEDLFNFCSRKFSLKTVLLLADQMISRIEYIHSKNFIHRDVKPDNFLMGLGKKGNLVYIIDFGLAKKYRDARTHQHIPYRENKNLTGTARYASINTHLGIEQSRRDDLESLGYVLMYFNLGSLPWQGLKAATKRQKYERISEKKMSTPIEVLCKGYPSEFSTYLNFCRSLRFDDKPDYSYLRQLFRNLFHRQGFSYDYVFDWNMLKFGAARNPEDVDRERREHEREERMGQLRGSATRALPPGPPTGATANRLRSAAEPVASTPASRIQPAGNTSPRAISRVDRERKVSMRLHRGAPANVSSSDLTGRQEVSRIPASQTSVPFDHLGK

[38] = molecular target: T8, Casein kinase I isoform epsilon; assay: Selectivity interaction (Western Blot assay (autophosphorylation of CSNK1E in HEK293T-REx cells)) EUB0001205a CSNK1E; format: cell-based, T-REx-293
[39] = molecular target: TRAF2 and NCK-interacting protein kinase (Homo sapiens) (UniProt Q9UKE5); assay: Selectivity interaction (Kinase panel (Reaction Biology)) EUB0001205a TNIK; conditions: at 1 µM
[40] = molecular target: T9, Tyrosine-protein kinase ZAP-70 (Homo sapiens) (UniProt P43403); assay: Selectivity interaction (Kinase panel (Reaction Biology)) EUB0001205a ZAP70; conditions: at 1 µM
T9 sequence (whole entry): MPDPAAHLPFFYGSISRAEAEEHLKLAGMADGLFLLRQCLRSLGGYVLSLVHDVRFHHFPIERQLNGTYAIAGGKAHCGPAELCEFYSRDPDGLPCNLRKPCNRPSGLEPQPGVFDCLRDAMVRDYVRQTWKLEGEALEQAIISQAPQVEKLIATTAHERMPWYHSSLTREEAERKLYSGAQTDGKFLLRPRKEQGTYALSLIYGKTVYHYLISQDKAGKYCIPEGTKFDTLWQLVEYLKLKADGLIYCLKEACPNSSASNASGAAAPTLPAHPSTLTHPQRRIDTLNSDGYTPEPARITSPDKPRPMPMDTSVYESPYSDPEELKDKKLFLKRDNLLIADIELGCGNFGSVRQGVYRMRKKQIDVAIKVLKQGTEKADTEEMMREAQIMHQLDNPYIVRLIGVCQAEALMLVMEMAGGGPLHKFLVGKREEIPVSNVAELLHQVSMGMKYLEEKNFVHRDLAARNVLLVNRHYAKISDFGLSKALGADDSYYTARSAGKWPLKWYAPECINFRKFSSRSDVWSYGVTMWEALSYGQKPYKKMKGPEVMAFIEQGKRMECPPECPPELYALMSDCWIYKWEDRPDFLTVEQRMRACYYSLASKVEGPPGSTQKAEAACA

[41] = molecular target: T10, Mitogen-activated protein kinase 14 (Homo sapiens, UniProt Q16539); assay: Selectivity interaction (Tracer competition assays (Reaction Biology)) EUB0001201a MAPK14
[42] = molecular target: T10, Mitogen-activated protein kinase 14; assay: Selectivity interaction (NanoBRET assay (using HEK293T cells)) EUB0001201a MAPK14; format: cell-based, HEK-293T

T6 sequence (Q96SB4 whole entry): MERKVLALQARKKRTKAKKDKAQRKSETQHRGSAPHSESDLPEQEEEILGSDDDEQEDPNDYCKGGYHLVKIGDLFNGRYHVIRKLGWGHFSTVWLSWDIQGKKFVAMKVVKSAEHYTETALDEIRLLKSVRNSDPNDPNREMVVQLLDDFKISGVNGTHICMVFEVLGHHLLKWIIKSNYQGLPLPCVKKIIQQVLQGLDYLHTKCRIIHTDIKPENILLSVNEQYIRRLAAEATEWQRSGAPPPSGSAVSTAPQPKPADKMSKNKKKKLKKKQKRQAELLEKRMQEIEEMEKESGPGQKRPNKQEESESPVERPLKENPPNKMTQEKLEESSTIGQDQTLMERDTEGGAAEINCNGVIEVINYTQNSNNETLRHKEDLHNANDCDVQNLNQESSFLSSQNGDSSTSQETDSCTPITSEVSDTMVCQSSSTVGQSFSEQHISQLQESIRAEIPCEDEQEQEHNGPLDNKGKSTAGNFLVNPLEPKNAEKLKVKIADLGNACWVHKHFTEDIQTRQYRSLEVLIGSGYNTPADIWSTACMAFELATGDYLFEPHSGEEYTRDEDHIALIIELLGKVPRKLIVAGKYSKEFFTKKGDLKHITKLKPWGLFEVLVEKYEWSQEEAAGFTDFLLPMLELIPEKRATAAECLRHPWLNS
T10 sequence (Q16539 whole entry): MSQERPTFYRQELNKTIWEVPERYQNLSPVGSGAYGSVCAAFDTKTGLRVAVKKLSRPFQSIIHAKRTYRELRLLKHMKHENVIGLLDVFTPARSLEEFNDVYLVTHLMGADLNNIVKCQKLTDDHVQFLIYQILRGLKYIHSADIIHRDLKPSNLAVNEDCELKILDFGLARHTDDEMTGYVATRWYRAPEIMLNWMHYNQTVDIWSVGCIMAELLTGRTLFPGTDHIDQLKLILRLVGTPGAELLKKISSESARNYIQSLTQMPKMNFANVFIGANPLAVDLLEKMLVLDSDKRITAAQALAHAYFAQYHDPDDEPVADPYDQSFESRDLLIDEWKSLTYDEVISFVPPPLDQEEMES
T3 sequence (Q9BXF3 whole entry): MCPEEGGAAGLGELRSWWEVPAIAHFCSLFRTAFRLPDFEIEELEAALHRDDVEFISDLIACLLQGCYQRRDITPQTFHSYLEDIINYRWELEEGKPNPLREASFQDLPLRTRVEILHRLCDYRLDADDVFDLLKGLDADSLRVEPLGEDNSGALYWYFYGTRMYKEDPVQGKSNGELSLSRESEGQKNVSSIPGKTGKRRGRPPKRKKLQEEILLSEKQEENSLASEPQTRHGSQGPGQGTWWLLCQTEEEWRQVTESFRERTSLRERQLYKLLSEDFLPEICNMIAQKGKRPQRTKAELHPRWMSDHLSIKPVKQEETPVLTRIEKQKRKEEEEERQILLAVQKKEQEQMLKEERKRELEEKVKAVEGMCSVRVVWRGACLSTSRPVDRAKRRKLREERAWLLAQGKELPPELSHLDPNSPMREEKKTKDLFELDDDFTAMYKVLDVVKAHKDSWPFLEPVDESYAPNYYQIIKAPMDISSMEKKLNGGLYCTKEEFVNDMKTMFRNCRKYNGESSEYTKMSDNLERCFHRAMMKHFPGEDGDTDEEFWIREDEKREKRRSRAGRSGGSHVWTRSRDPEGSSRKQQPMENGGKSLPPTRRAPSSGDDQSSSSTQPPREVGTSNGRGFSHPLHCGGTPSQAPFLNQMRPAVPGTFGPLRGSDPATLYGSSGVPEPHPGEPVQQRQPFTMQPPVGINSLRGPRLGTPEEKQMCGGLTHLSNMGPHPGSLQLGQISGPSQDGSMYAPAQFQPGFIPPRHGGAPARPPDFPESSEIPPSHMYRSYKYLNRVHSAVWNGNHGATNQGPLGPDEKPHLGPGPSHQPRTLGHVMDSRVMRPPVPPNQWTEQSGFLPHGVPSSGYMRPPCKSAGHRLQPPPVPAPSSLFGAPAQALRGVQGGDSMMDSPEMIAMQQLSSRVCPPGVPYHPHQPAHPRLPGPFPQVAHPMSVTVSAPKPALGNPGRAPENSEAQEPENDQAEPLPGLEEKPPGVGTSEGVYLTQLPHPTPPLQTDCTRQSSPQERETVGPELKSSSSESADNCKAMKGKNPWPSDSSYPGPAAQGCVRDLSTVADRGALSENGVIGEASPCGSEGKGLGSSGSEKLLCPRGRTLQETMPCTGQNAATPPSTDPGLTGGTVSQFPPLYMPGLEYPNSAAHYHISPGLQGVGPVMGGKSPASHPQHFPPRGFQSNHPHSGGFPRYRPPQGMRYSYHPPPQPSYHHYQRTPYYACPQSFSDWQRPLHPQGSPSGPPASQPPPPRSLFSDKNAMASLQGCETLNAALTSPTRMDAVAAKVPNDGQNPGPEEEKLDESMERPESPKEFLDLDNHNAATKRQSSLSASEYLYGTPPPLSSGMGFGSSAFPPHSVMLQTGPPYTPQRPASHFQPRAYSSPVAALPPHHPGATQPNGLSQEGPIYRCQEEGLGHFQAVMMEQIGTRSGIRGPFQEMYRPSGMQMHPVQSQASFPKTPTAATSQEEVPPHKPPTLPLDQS
Dual specificity protein kinase CLK2, sequence (P49760 whole entry): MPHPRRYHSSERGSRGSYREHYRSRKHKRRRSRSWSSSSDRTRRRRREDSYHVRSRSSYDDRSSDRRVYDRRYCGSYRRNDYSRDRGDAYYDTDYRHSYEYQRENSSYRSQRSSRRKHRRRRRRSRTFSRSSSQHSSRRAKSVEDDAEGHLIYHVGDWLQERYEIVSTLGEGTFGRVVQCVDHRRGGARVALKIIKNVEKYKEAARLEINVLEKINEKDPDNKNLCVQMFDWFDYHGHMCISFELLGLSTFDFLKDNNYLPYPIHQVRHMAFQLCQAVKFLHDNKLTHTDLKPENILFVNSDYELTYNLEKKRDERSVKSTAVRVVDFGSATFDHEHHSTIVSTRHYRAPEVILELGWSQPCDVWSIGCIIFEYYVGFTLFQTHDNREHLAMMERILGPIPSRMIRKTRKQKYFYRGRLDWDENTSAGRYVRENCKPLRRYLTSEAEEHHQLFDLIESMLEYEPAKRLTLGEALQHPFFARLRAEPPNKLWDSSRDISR
SRSF protein kinase 2 (Homo sapiens), sequence (P78362 whole entry, looked up): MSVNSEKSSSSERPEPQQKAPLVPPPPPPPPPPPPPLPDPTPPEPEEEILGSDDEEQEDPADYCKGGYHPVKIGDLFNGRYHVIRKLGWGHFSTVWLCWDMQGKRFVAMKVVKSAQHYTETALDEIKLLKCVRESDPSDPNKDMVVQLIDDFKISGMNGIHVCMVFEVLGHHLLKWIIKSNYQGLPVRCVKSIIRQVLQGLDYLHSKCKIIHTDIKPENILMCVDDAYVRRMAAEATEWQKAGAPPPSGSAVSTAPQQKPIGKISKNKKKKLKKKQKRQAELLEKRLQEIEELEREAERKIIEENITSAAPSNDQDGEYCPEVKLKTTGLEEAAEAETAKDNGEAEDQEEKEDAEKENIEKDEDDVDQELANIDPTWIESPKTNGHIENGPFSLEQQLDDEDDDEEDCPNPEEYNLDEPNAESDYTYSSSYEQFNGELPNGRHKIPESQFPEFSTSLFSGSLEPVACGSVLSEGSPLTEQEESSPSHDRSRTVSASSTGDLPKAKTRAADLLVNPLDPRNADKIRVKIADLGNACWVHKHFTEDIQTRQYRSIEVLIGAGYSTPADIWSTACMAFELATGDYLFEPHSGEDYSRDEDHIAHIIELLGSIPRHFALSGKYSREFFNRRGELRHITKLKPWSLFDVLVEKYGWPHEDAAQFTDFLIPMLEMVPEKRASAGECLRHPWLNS
Dual specificity protein kinase CLK4, sequence (Q9HAZ1 whole entry): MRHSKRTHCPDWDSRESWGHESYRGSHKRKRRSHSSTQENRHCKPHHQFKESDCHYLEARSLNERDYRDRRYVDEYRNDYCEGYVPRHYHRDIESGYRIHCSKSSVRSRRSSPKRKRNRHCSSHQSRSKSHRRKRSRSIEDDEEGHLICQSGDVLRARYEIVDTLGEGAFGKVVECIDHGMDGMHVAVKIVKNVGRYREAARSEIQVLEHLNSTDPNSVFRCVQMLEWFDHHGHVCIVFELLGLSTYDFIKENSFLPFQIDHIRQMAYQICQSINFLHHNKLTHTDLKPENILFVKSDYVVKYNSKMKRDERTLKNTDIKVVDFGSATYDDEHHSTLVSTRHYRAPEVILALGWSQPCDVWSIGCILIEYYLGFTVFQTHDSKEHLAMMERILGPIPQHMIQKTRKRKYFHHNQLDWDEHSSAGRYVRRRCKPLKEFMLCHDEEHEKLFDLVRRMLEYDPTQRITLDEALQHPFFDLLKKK
TATA box-binding protein-associated factor RNA polymerase I subunit A, sequence (Q15573 whole entry): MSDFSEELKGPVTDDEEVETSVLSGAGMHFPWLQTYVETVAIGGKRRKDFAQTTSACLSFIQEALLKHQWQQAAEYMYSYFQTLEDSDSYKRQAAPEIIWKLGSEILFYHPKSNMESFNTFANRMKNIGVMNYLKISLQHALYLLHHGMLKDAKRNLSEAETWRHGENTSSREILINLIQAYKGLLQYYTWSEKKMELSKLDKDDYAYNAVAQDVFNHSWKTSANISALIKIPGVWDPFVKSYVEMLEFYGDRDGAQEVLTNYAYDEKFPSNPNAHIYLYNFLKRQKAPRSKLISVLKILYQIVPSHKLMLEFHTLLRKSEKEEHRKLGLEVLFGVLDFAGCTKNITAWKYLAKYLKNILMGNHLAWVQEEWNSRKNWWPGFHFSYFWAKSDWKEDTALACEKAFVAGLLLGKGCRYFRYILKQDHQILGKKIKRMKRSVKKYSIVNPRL

CCc1cc2cc(NS(=O)(=O)c3ccc(C#N)cc3)ccc2n(CC)c1=O
IC50 [1]: > 100 µM
IC50 [2]: > 100 µM
IC50 [3]: > 100 µM
IC50 [4]: > 100 µM
IC50 [5]: > 200 µM
IC50 [6]: > 100 µM
IC50 [7]: > 100 µM
IC50 [8]: > 200 µM
IC50 [9]: > 200 µM
IC50 [10]: > 100 µM
IC50 [11]: > 200 µM
IC50 [12]: > 100 µM
IC50 [13]: > 200 µM
IC50 [14]: > 100 µM
IC50 [15]: > 77 µM
IC50 [16]: > 200 µM
IC50 [17]: > 100 µM

CN(c1ncccc1CNc1ccnc(-c2nc3c(F)c(Cl)ccc3[nH]2)n1)S(C)(=O)=O
IC50 [18]: > 10 µM
IC50 [19]: > 10 µM
IC50 [20]: > 10 µM
IC50 [21]: > 10 µM
IC50 [22]: > 10 µM
IC50 [23]: > 10 µM
IC50 [24]: > 10 µM
IC50 [25]: > 10 µM
% of control [26]: 8.76%
dTM [27]: 9.1 K
dTM [28]: 4 K

COc1cc(-c2cncc(-c3ccc(N4CCN(C(C)C)CC4)cc3)c2C)cc(F)c1C(=O)N1CCCC1
IC50 [29]: > 0.01 µM
IC50 [30]: > 0.01 µM
IC50 [31]: > 0.01 µM
IC50 [32]: > 0.01 µM

CN1CCC(F)(Cn2cnc(-c3ccc(F)cn3)c2-c2ccnc3[nH]ccc23)CC1
% of inhibition [33]: 6%
IC50 [34]: 0.52 µM
% of inhibition [35]: -6%
IC50 [36]: 0.5 µM
% of inhibition [37]: 0%
IC50 [38]: 12.4 µM
% of inhibition [39]: 43%
% of inhibition [40]: 71%

CCc1ccc(-c2ncn(CC3(F)CCN(C)CC3)c2-c2ccnc3[nH]ccc23)nc1
IC50 [41]: > 3 µM
IC50 [42]: 9.9 µM
